From patent US20110117055A1, “Methods of Treating Hepatitis C Virus with Oxoacetamide Compounds” (priority 2009, published 2011)

How the values were obtained:
Jc1-luc virus = assay: Luciferase compound activity assay, Jc1-luc virus in Huh7.5.1 cells; type: cell-based, HCV genotype-2a; conditions: Jc1-luc; ± standard error of the mean
Description: Cell culture. Human hepatoma Huh-7.5.1 cells or Huh7 cells were grown at 37° C. and 5% CO2 in Dulbecco's modification of Eagle's medium supplemented with 2 mM L-glutamine, 1 mM Sodium pyruvate, 1× Non-essential amino acids mix, 100 units/ml penicillin, 100 μg/ml streptomycin, and 10% fetal bovine serum.
Virus plasmids. The chimeric full-length construct pFL-JC1, a GT2a/2a chimera consisting of structural genes from the J6CF isolate and non-structural genes from the JFH1 isolate, has been described previously. See Backes et al., J. Virol. 2010, 84:5775-89; Schaller et al., J. Virol., 2007, 81:4591-603; Koutsoudakis et al., J. Virol. 2006, 80:5308-20; Pietschmann et al., Proc. Natl. Acad. Sci., 2006, 103:7408-13. The firefly luciferase gene has been inserted to pFL-Jc1 to develop a plamid pFL-Jc1-luc for use as a reporter of viral replication. See Amako et al., J. Virol. 2009, 83:9237-46. Specifically, the pFL-JC1-luc construct can be utilized to develop an infectious HCV cell culture system to test novel HCV inhibitors, including entry inhibitors, in vitro using luciferase expression.
Preparation of infectious HCV. Jc1-luc or HCV2a/2aChRluc RNA was in vitro transcribed using T7 RiboMAX™ Express Large Scale RNA Production System (Promega). After RNA clean up (Qiagen RNeasy Mini kit), transfection was performed as previously described.
400 microliters of a Huh-7.5.1 or Huh7 cell suspension (10^7 cells/ml) was placed in a 0.4-cm cuvette with 10 μg of Jc1-luc or HCV2a/2aChRluc RNA and electroporated (Bio-Rad Gene Pulser System) using a single square wave at 260 V and 25 ms pulse length. The cells were plated in 15-cm tissue culture dishes (Corning) and supernatant was harvested and concentrated using a centrifugal filter (Amicon 100K, Millipore).
Luciferase compound activity assay. Cell culture and luciferase compound assays were performed as previously described. See Wyles et al., J. Virol. 2007, 81:3005-8; Wyles et al., Antimicrob Agents Chemother. 2009, 53:2660-2; Grünberger et al., J. Infect. Dis. 2008, 197:42-5; Wyles et al., Antimicrob Agents Chemother, 2008, 52:1862-4. Briefly, Huh7.5.1 cells were seeded into 96-well plates at a density of 10,000 cells per well in 100 μl medium. After incubating overnight for attachment, Jc1-luc virus at an MOI 0.01 was added to wells with or without compounds at the specified concentrations. All conditions were run in triplicate. After 24 hours, medium was aspirated and replaced with 100 μl of complete medium containing an identical concentration of compound(s) followed by additional 48 hour incubation. The luciferase assay (Bright-Glo; Promega) was carried out according to the manufacturer's instructions. Luciferase activity was determined using a microplate luminometer (Veritas microplate luminometer; Turner Biosystems). […]

[1] = test system: HCV2aCh (E2:G451R) mutant virus; assay: E2:G451R mutant virus infectivity, luciferase assay; type: cell-based, HCV genotype 2a; conditions: E2:G451R vs parental
Text: Since SR-B1 is also known to be one of the essential cellular receptors required for HCV entry, we were interested to know if Compounds 1 and 5 inhibits HCV entry via SR-B1. HCV E2 protein interaction with SR-B1 is believed to occur via hypervariable region 1 located within the N-terminal region of the E2 glycoprotein. Zhong and colleagues reported that a glycine-to-arginine mutation at position 451 (G451R) in E2 promoted JFH-1 infectivity (J. Viol. 2006, 80:11082). […] We introduced the E2:G451R mutation into the backbone of HCV2aCh (FIG. 13a) to test whether this mutation may alter the inhibitory effect of Compounds 1 and 5 on HCV entry mediated by SR-B1.

[2] = test system: HCV genotype 1b subgenomic replicon; assay: HCV replicon assay (HCV1b replicon cells, NS5A ELISA); type: cell-based; conditions: 3 days
Description: Alternatively, Hut1b cells (Huh7 cells stably replicating HCV genotype 1b subgenomic replicon) were treated with serial dilutions of the test compound for 72 hours. Replication efficiency was monitored by ELISA assay using anti-HCV NS5A monoclonal antibody (Virogen).
Increasing amounts of compound were inoculated onto HCV1b replicon cells and incubated for 3 days. Following incubation, HCV replication was monitored with NS5A protein expression by ELISA.

IFN-α was tested, and the EC50 (Jc1-luc virus) was 3.01 ± 0.39 IU/ml, the “sensitivity of E2 mutant virus relative to parental virus, luciferase assay for viral infectivity” value [1] was “very identical patterns” and the CC50 (Huh7.5.1 cells) was over 100 IU/ml. The “effect on HCV replication (NS5A protein expression by ELISA)” value [2] was “dose dependent inhibition”.
